Results taken from patent EP0729362B1, “TRANSDERMAL COMPOSITION OF N- N- 5- 4-(AMINOIMINOMETHYL)PHENYL]-1-OXOPENTYL]-L-alpha-ASPARTYL]-L-PHENYLALANINE OR ITS ESTERS AND THEIR PHARMACEUTICALLY ACCEPTABLE SALTS” (G.D. SEARLE & CO., priority 1993, dated 1995).

Assay: transdermal shaved rat model: delivery of tritiated compound from a gel patch, counted in urine and feces
Type: in vivo, Rats
Conditions: 2.5 cm^2 patch
From the text: Rats were anesthetized with N2O/O2 and [sequence] fluorocarbon anesthesia using a metering device (Quantifier VMC Anesthesia Machine, Matrix Media Inc.) The rat's back was carefully shaved using an electric razor the day before the transdermal experiment, and no abrasions in the skin surface were apparent.
Compound was applied to the skin using a Hilltop Chamber® transdermal delivery plastic device, in which the compound was contained in a 3% hydroxypropyl cellulose gel. The device was glued in place using cyanomethacrylate (Superbinder 495, Newark Electronics).
The aqueous formulation was 2% in N-[N-[5-[4-(aminoiminomethyl)phenyl]-1-oxopentyl]-L-α-aspartyl]-L-phenylalanine, monohydrochloride (10 mg N-[N-[5-[4-(aminoiminomethyl)phenyl]-1-oxopentyl]-L-α-aspartyl]-L-phenylalanine, monohydrochloride 0.5 ml gel/2.5 cm^2 patch). […] The amount of compound in a sample was calculated from the number of counts detected and the specific radioactivity of the compound in the patch.
Urine and feces were collected daily after patch application as indicated in the Table I. Counts were combined to achieve the total amount delivered. Urine was counted directly by scintillography (Hionic Fluid, Packard Co., Mark III), while feces, were processed by mechanical mixing in saline followed by oxidization of a dried aliquot to tritiated water in an oxidizer (Oxidizer Machine, Packard).

| average amount delivered (urine and feces counts combined for the total amount delivered) | average amount delivered into the urine (amount calculated from [3H] counts) | Compound |
| --- | --- | --- |
| 4.6 ± 1.9 mg | – | CCOC(=O)C[C@H](NC(=O)CCCCc1ccc(C(=N)N)cc1)C(=O)N[C@@H](Cc1ccccc1)C(=O)OCC [N-[N-[5-[4-(aminoiminomethyl)phenyl]-1-oxopentyl]-L-α-aspartyl]-L-phenylalanine diethyl ester] |
| – | 48 mg | N-[N-[5-[4-(aminoiminomethyl)phenyl]-1-oxopentyl]-L-α-aspartyl]-L-phenylalanine, monohydrochloride |
